Reference: paper PMC9516332 (Frontiers in Oncology, 2022)
Where two headings read alike, the source gives them in different places.

Experiments:
[1] = test system: AP-1060 (ETV6-NTRK3); test: Cell viability assay; conditions: read-out: IC50 in cell proliferation assay
[2] = test system: 134 cancer cell lines; test: Cell viability assay (ATPlite, 72 hours), IC50 on cancer cell line panel

With Cc1cc(Nc2ncnc3ccc(NC4=NC(C)(C)CO4)cc23)ccc1Oc1ccn2ncnc2c1 [tucatinib] the IC50 [1] was 29.1 µM, the IC50 ([2]; HEC-6, read-out: IC50 in cell proliferation assay, HEC-6 cell line (EGFR p.A289V)) was 14.8 µM and the IC50 ([2]; Homo sapiens, 769-P, read-out: IC50 in cell proliferation assay, cell line 769-P) was 20.2 µM. For the same molecule, the IC50 ([2]; Homo sapiens, 786-0, read-out: IC50 in cell proliferation assay, cell line 786-O) was 21.3 µM, the IC50 ([2]; Homo sapiens, A 172, read-out: IC50 in cell proliferation assay, cell line A-172) was 17.4 µM and the IC50 ([2]; Homo sapiens, A204, read-out: IC50 in cell proliferation assay, cell line A-204) was 11.4 µM. For the same molecule, the IC50 ([2]; Homo sapiens, A498, read-out: IC50 in cell proliferation assay, cell line A-498) was 20.4 µM, the IC50 ([2]; Homo sapiens, A549, read-out: IC50 in cell proliferation assay, cell line A-549) was 25.7 µM and the IC50 ([2]; Homo sapiens, A704, read-out: IC50 in cell proliferation assay, cell line A-704) was greater than 31.6 µM. It also gave an IC50 ([2]; Homo sapiens, A-375, read-out: IC50 in cell proliferation assay, cell line A-375 (BRAF p.V600E)) of 11.3 µM, an IC50 ([2]; Homo sapiens, A-427, read-out: IC50 in cell proliferation assay, cell line A-427) of 22.2 µM and an IC50 ([2]; Homo sapiens, ACHN, read-out: IC50 in cell proliferation assay, cell line ACHN) of 13.9 µM. The IC50 ([2]; Homo sapiens, AN3-CA, read-out: IC50 in cell proliferation assay, cell line AN3-CA (FGFR2 p.N549K)) was 24.5 µM, the IC50 ([2]; Homo sapiens, ASPC1, read-out: IC50 in cell proliferation assay, cell line AsPC-1) was greater than 31.6 µM and the IC50 ([2]; Homo sapiens, AU565, read-out: IC50 in cell proliferation assay, cell line AU565 (ERBB2 amplification)) was 0.125 µM. For the same molecule, the IC50 ([2]; Homo sapiens, BT-20, read-out: IC50 in cell proliferation assay, cell line BT-20) was 28.8 µM, the IC50 ([2]; Homo sapiens, BT-474, read-out: IC50 in cell proliferation assay, cell line BT-474 (ERBB2 amplification)) was 0.029 µM and the IC50 ([2]; Homo sapiens, BT-549, read-out: IC50 in cell proliferation assay, cell line BT-549) was 15.9 µM. For the same molecule, the IC50 ([2]; Homo sapiens, BXPC-3, read-out: IC50 in cell proliferation assay, cell line BxPC-3) was 12.6 µM, the IC50 ([2]; Homo sapiens, C-33-A, read-out: IC50 in cell proliferation assay, cell line C-33 A) was 0.412 µM and the IC50 ([2]; Homo sapiens, CAL-27, read-out: IC50 in cell proliferation assay, cell line CAL-27) was 13.7 µM. It also gave an IC50 ([2]; Homo sapiens, CCF-STTG1, read-out: IC50 in cell proliferation assay, cell line CCF-STTG1) greater than 31.6 µM, an IC50 ([2]; Homo sapiens, CCRF-CEM, read-out: IC50 in cell proliferation assay, cell line CCRF-CEM) of 17.7 µM and an IC50 ([2]; Homo sapiens, COLO 205, read-out: IC50 in cell proliferation assay, cell line COLO 205 (BRAF p.V600E)) of 22.2 µM. The IC50 ([2]; Homo sapiens, COLO-829, read-out: IC50 in cell proliferation assay, cell line COLO 829 (BRAF p.V600E)) was 20.6 µM, the IC50 ([2]; Homo sapiens, DLD-1, read-out: IC50 in cell proliferation assay, cell line DLD-1) was 23.2 µM and the IC50 ([2]; Homo sapiens, DU-4475, read-out: IC50 in cell proliferation assay, cell line DU4475 (BRAF p.V600E)) was 10.7 µM. It also gave an IC50 ([2]; Homo sapiens, Daoy, read-out: IC50 in cell proliferation assay, cell line Daoy) of 30.2 µM, an IC50 ([2]; Homo sapiens, DoTc2-4510, read-out: IC50 in cell proliferation assay, cell line DoTc2 4510) of 5.59 µM and an IC50 ([2]; Homo sapiens, EOL1, read-out: IC50 in cell proliferation assay, cell line EoL-1 (FIP1L1-PDGFRA)) of 4.24 µM. For the same molecule, the IC50 ([2]; Homo sapiens, FaDu, read-out: IC50 in cell proliferation assay, cell line FaDu) was 14.1 µM, the IC50 ([2]; Homo sapiens, G-361, read-out: IC50 in cell proliferation assay, cell line G-361 (BRAF p.V600E)) was 13.5 µM and the IC50 ([2]; Homo sapiens, HCC827, read-out: IC50 in cell proliferation assay, cell line HCC827 (EGFR exon19del)) was 2.38 µM. For the same molecule, the IC50 ([2]; Homo sapiens, HCC4006, read-out: IC50 in cell proliferation assay, cell line HCC4006 (EGFR exon19del)) was 6.56 µM, the IC50 ([2]; Homo sapiens, HCT-15, read-out: IC50 in cell proliferation assay, cell line HCT 15) was 16.7 µM and the IC50 ([2]; Homo sapiens, HCT-116, read-out: IC50 in cell proliferation assay, cell line HCT 116) was 21.9 µM. For the same molecule, the IC50 ([2]; Homo sapiens, HEC-1, read-out: IC50 in cell proliferation assay, HEC-1 cell line) was 13.9 µM, the IC50 ([2]; Homo sapiens, HEC-1B, read-out: IC50 in cell proliferation assay, HEC-1-B cell line (EGFR p.A864V)) was 1.62 µM and the IC50 ([2]; Homo sapiens, HL-60, read-out: IC50 in cell proliferation assay, HL-60 cell line) was 16.9 µM. For the same molecule, the IC50 ([2]; Homo sapiens, HT, read-out: IC50 in cell proliferation assay, HT cell line) was 29.9 µM, the IC50 ([2]; Homo sapiens, HT-1080, read-out: IC50 in cell proliferation assay, HT-1080 cell line) was 17.2 µM and the IC50 ([2]; Homo sapiens, Hs746T, read-out: IC50 in cell proliferation assay, Hs 746.T cell line (MET exon14skip + amplification)) was 12.4 µM. For the same molecule, the IC50 ([2]; Homo sapiens, Hs-578T, read-out: IC50 in cell proliferation assay, Hs 578T cell line) was 24.1 µM, the IC50 ([2]; Homo sapiens, HuTu80, read-out: IC50 in cell proliferation assay, HuTu 80 cell line) was 0.623 µM and the IC50 ([2]; Homo sapiens, J82, read-out: IC50 in cell proliferation assay, J82 cell line) was greater than 31.6 µM. For the same molecule, the IC50 ([2]; Homo sapiens, Jurkat E6.1, read-out: IC50 in cell proliferation assay, Jurkat E6.1 cell line) was 14.7 µM, the IC50 ([2]; Homo sapiens, K562, read-out: IC50 in cell proliferation assay, K-562 cell line) was 8.53 µM and the IC50 ([2]; Homo sapiens, KATO III, read-out: IC50 in cell proliferation assay, KATO III cell line (FGFR2 amplification)) was 17.9 µM. It also gave an IC50 ([2]; Homo sapiens, KG-1, read-out: IC50 in cell proliferation assay, KG-1 cell line (FGFR1OP2-FGFR1)) of 16.2 µM, an IC50 ([2]; Homo sapiens, KLE, read-out: IC50 in cell proliferation assay, KLE cell line) of 4.74 µM and an IC50 ([2]; Homo sapiens, KMS-11, read-out: IC50 in cell proliferation assay, KMS-11 cell line (FGFR3 p.Y373C)) of 18.2 µM. For the same molecule, the IC50 ([2]; Homo sapiens, KU812, read-out: IC50 in cell proliferation assay, Ku812 cell line) was 22.6 µM, the IC50 ([2]; Homo sapiens, Kasumi 1, read-out: IC50 in cell proliferation assay, Kasumi-1 cell line (KIT p.N822K)) was 24.3 µM and the IC50 ([2]; Homo sapiens, LC-2-ad, read-out: IC50 in cell proliferation assay, LC-2/ad cell line (CCDC6-RET)) was 22.5 µM. It also gave an IC50 ([2]; Homo sapiens, LNCaP-Clone-FGC, read-out: IC50 in cell proliferation assay, LNCaP clone FGC cell line) of 21.8 µM, an IC50 ([2]; Homo sapiens, LS174T, read-out: IC50 in cell proliferation assay, LS174T cell line) of 20.3 µM and an IC50 ([2]; Homo sapiens, LS-411N, read-out: IC50 in cell proliferation assay, LS411N cell line (BRAF p.V600E)) of 21.4 µM. For the same molecule, the IC50 ([2]; Homo sapiens, LoVo, read-out: IC50 in cell proliferation assay, LoVo cell line) was 25.7 µM, the IC50 ([2]; Homo sapiens, MCF7, read-out: IC50 in cell proliferation assay, MCF-7 cell line) was 30.5 µM and the IC50 ([2]; Homo sapiens, MDA-MB-231, read-out: IC50 in cell proliferation assay, MDA-MB-231 cell line) was 22.5 µM. The IC50 ([2]; Homo sapiens, MDA-MB-453, read-out: IC50 in cell proliferation assay, MDA-MB-453 cell line) was 5.93 µM, the IC50 ([2]; Homo sapiens, MDA-MB-468, read-out: IC50 in cell proliferation assay, MDA-MB-468 cell line) was 8.88 µM and the IC50 ([2]; Homo sapiens, MG-63, read-out: IC50 in cell proliferation assay, MG-63 cell line) was 29.4 µM. The IC50 ([2]; Homo sapiens, MIA PaCa-2, read-out: IC50 in cell proliferation assay, MIA PaCa-2 cell line) was 18.3 µM, the IC50 ([2]; Homo sapiens, MKN-45, read-out: IC50 in cell proliferation assay, MKN45 cell line (MET amplification)) was 17.1 µM and the IC50 ([2]; Homo sapiens, MOLM-13, read-out: IC50 in cell proliferation assay, MOLM-13 cell line (FLT3 ITD)) was 14.3 µM. For the same molecule, the IC50 ([2]; Homo sapiens, MOLT-4, read-out: IC50 in cell proliferation assay, MOLT-4 cell line) was 20.3 µM, the IC50 ([2]; Homo sapiens, MV4-11, read-out: IC50 in cell proliferation assay, MV4-11 cell line (FLT3 ITD)) was 19.1 µM and the IC50 ([2]; Homo sapiens, MeWo, read-out: IC50 in cell proliferation assay, MeWo cell line) was greater than 31.6 µM. It also gave an IC50 ([2]; Homo sapiens, NCCIT, read-out: IC50 in cell proliferation assay, NCC-IT cell line) greater than 31.6 µM and an IC50 ([2]; Homo sapiens, NCI-H82, read-out: IC50 in cell proliferation assay, cell line NCI-H82) of 20.4 µM.
